Reference: PubChem BioAssay (NCI)
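Values below derive from 48-hour exposures of cells grown in 96-well plates, with endpoints linearly interpolated between the two concentrations bracketing the appropriate inhibition level. GI50 is the concentration that inhibits growth by half. TGI: concentration producing complete growth inhibition.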

Experiments:
Experiment in all cases: NCI-60 cell line screen, 48 h
SF-268 CNS = test system: SF-268 CNS
HL-60(TB) leukemia = test system: HL-60(TB) leukemia
UACC-257 melanoma = test system: UACC-257 melanoma
HCT-15 colon = test system: HCT-15 colon
NCI-H226 lung = test system: NCI-H226 lung
ACHN renal = test system: ACHN renal
TK-10 renal = test system: TK-10 renal
PC-3 prostate = test system: PC-3 prostate
OVCAR-5 ovarian = test system: OVCAR-5 ovarian
MCF7 breast = test system: MCF7 breast
DU-145 prostate = test system: DU-145 prostate
MALME-3M melanoma = test system: MALME-3M melanoma
RXF 393 renal = test system: RXF 393 renal
MDA-MB-231 breast = test system: MDA-MB-231 breast
OVCAR-3 ovarian = test system: OVCAR-3 ovarian
SK-OV-3 ovarian = test system: SK-OV-3 ovarian
NCI/ADR-RES ovarian = test system: NCI/ADR-RES ovarian
OVCAR-4 ovarian = test system: OVCAR-4 ovarian
K-562 leukemia = test system: K-562 leukemia
OVCAR-8 ovarian = test system: OVCAR-8 ovarian
HCT-116 colon = test system: HCT-116 colon
NCI-H522 lung = test system: NCI-H522 lung
MDA-MB-435 = test system: MDA-MB-435
HT29 colon = test system: HT29 colon
COLO 205 colon = test system: COLO 205 colon
MOLT-4 leukemia = test system: MOLT-4 leukemia
SK-MEL-2 melanoma = test system: SK-MEL-2 melanoma
NCI-H23 lung = test system: NCI-H23 lung
LOX IMVI melanoma = test system: LOX IMVI melanoma
BT-549 breast = test system: BT-549 breast
HOP-62 NSCLC = test system: HOP-62 NSCLC
EKVX NSCLC = test system: EKVX NSCLC
HCC-2998 colon = test system: HCC-2998 colon
T-47D breast = test system: T-47D breast
SW-620 colon = test system: SW-620 colon
HOP-92 NSCLC = test system: HOP-92 NSCLC
UO-31 renal = test system: UO-31 renal
NCI-H460 lung = test system: NCI-H460 lung
SNB-19 CNS = test system: SNB-19 CNS
HS 578T breast = test system: HS 578T breast
SN12C renal = test system: SN12C renal
KM12 colon = test system: KM12 colon
IGROV1 ovarian = test system: IGROV1 ovarian
786-0 renal = test system: 786-0 renal
SNB-75 CNS = test system: SNB-75 CNS
M14 melanoma = test system: M14 melanoma
SF-295 CNS = test system: SF-295 CNS
SK-MEL-5 melanoma = test system: SK-MEL-5 melanoma
SK-MEL-28 melanoma = test system: SK-MEL-28 melanoma
CCRF-CEM leukemia = test system: CCRF-CEM leukemia
A549 NSCLC = test system: A549 NSCLC
SF-539 CNS = test system: SF-539 CNS
A498 renal = test system: A498 renal
UACC-62 melanoma = test system: UACC-62 melanoma
SR leukemia = test system: SR leukemia
RPMI-8226 leukemia = test system: RPMI-8226 leukemia
CAKI-1 renal = test system: CAKI-1 renal
U251 CNS = test system: U251 CNS

SMILES: CN1CCN(c2ccc(NC(=O)Nc3ccc4c(ccn4-c4cccc(C(N)=O)n4)c3)cc2C(F)(F)F)CC1
- GI50 (SF-268 CNS): 6.71 µM
- TGI (SF-268 CNS): 18 µM
- GI50 (HL-60(TB) leukemia): 5.59 µM
- TGI (HL-60(TB) leukemia): 13.5 µM
- GI50 (UACC-257 melanoma): 1.11 µM
- TGI (UACC-257 melanoma): 2.66 µM
- GI50 (HCT-15 colon): 1.66 µM
- TGI (HCT-15 colon): 7.33 µM
- GI50 (NCI-H226 lung): 8.61 µM
- TGI (NCI-H226 lung): 20.4 µM
- GI50 (ACHN renal): 6.95 µM
- TGI (ACHN renal): 14.1 µM
- GI50 (TK-10 renal): 8.51 µM
- TGI (TK-10 renal): 16.3 µM
- GI50 (PC-3 prostate): 3.34 µM
- TGI (PC-3 prostate): 11 µM
- GI50 (OVCAR-5 ovarian): 7.54 µM
- TGI (OVCAR-5 ovarian): 17 µM
- GI50 (MCF7 breast): 0.878 µM
- TGI (MCF7 breast): 2.02 µM
- GI50 (DU-145 prostate): 5.97 µM
- TGI (DU-145 prostate): 14.5 µM
- GI50 (MALME-3M melanoma): 1.37 µM
- TGI (MALME-3M melanoma): 3.79 µM
- GI50 (RXF 393 renal): 1.06 µM
- TGI (RXF 393 renal): 2.5 µM
- GI50 (MDA-MB-231 breast): 6.53 µM
- TGI (MDA-MB-231 breast): 19.1 µM
- GI50 (OVCAR-3 ovarian): 8.35 µM
- TGI (OVCAR-3 ovarian): 16.4 µM
- GI50 (SK-OV-3 ovarian): 7.14 µM
- TGI (SK-OV-3 ovarian): 13.8 µM
- GI50 (NCI/ADR-RES ovarian): 9.47 µM
- TGI (NCI/ADR-RES ovarian): 24.2 µM
- GI50 (OVCAR-4 ovarian): 8.09 µM
- TGI (OVCAR-4 ovarian): 21.9 µM
- GI50 (K-562 leukemia): 0.938 µM
- TGI (K-562 leukemia): 2.17 µM
- GI50 (OVCAR-8 ovarian): 10.1 µM
- TGI (OVCAR-8 ovarian): 25.1 µM
- GI50 (HCT-116 colon): 0.858 µM
- TGI (HCT-116 colon): 1.84 µM
- GI50 (NCI-H522 lung): 10.1 µM
- TGI (NCI-H522 lung): 20.8 µM
- GI50 (MDA-MB-435): 1.13 µM
- TGI (MDA-MB-435): 2.82 µM
- GI50 (HT29 colon): 1.29 µM
- TGI (HT29 colon): 5.5 µM
- GI50 (COLO 205 colon): 5.91 µM
- TGI (COLO 205 colon): 15.4 µM
- GI50 (MOLT-4 leukemia): 1.02 µM
- TGI (MOLT-4 leukemia): 2.24 µM
- GI50 (SK-MEL-2 melanoma): 5.17 µM
- TGI (SK-MEL-2 melanoma): 12.4 µM
- GI50 (NCI-H23 lung): 7.61 µM
- TGI (NCI-H23 lung): 19.3 µM
- GI50 (LOX IMVI melanoma): 0.969 µM
- TGI (LOX IMVI melanoma): 2.03 µM
- GI50 (BT-549 breast): 5.21 µM
- TGI (BT-549 breast): 12.5 µM
- GI50 (HOP-62 NSCLC): 5.89 µM
- TGI (HOP-62 NSCLC): 12.9 µM
- GI50 (EKVX NSCLC): 6.9 µM
- TGI (EKVX NSCLC): 16.3 µM
- GI50 (HCC-2998 colon): 6.28 µM
- TGI (HCC-2998 colon): 14 µM
- GI50 (T-47D breast): 9.33 µM
- TGI (T-47D breast): 22.8 µM
- GI50 (SW-620 colon): 1.27 µM
- TGI (SW-620 colon): 2.91 µM
- GI50 (HOP-92 NSCLC): 6.91 µM
- TGI (HOP-92 NSCLC): 15.8 µM
- GI50 (UO-31 renal): 7.38 µM
- TGI (UO-31 renal): 15.6 µM
- GI50 (NCI-H460 lung): 1.74 µM
- TGI (NCI-H460 lung): 5.88 µM
- GI50 (SNB-19 CNS): 5.99 µM
- TGI (SNB-19 CNS): 16.4 µM
- GI50 (HS 578T breast): 2.68 µM
- TGI (HS 578T breast): 12.5 µM
- GI50 (SN12C renal): 8.1 µM
- TGI (SN12C renal): 18.5 µM
- GI50 (KM12 colon): 2.25 µM
- TGI (KM12 colon): 9.23 µM
- GI50 (IGROV1 ovarian): 9.04 µM
- TGI (IGROV1 ovarian): 20.4 µM
- GI50 (786-0 renal): 0.834 µM
- TGI (786-0 renal): 2 µM
- GI50 (SNB-75 CNS): 5.06 µM
- TGI (SNB-75 CNS): 11.9 µM
- GI50 (M14 melanoma): 0.991 µM
- TGI (M14 melanoma): 2.21 µM
- GI50 (SF-295 CNS): 0.969 µM
- TGI (SF-295 CNS): 2.15 µM
- GI50 (SK-MEL-5 melanoma): 0.964 µM
- TGI (SK-MEL-5 melanoma): 2.08 µM
- GI50 (SK-MEL-28 melanoma): 0.939 µM
- TGI (SK-MEL-28 melanoma): 1.91 µM
- GI50 (CCRF-CEM leukemia): 1.4 µM
- TGI (CCRF-CEM leukemia): 3.18 µM
- GI50 (A549 NSCLC): 5.2 µM
- TGI (A549 NSCLC): 13.3 µM
- GI50 (SF-539 CNS): 1.92 µM
- TGI (SF-539 CNS): 8.07 µM
- GI50 (A498 renal): 7.74 µM
- TGI (A498 renal): 14.8 µM
- GI50 (UACC-62 melanoma): 5.65 µM
- TGI (UACC-62 melanoma): 13.8 µM
- GI50 (SR leukemia): 0.929 µM
- TGI (SR leukemia): 2.48 µM
- GI50 (RPMI-8226 leukemia): 1.17 µM
- TGI (RPMI-8226 leukemia): 2.65 µM
- GI50 (CAKI-1 renal): 6.47 µM
- TGI (CAKI-1 renal): 13.5 µM
- GI50 (U251 CNS): 1.33 µM
- TGI (U251 CNS): 6.64 µM
